Reference: PubChem BioAssay AID1963981 (Molecular Pharmacology Branch, DTP, NCI, 2024)

Tested on: 354836-022-R-J1-PDC multicell spheroid viability
Experiment: Anticancer human tumor 354836-022-R-J1-PDC patient-derived head and neck squamous cell carcinoma cell line growth inhibition [PI3K]
Conditions: for IC50: curve of first compound; for viability, T/C: stronger effect = lower value
Text: Combinatorial screen of targeted agents with the PI3K inhibitors inavolisib, alpelisib, duvelisib, and copanlisib in multi-cell type tumor spheroids
A high-throughput screen of multi-cell type tumor spheroids was designed to identify active combinations of targeted small molecules and PI3K pathway inhibitors. Complex spheroids include a stromal component modeled by human endothelial cells (HUVEC) and fibroblasts modeled by human mesenchymal stem cells (MSCs). The concentration ranges selected for each drug and investigational agent were based upon clinically achievable concentrations if the clinical Cmax of the agent was known.
Compounds. The drugs and investigational agents: inavolisib (NSC800729), alpelisib (NSC765974), duvelisib (NSC772469), copanlisib (NSC816437), ipatasertib (NSC767898), afuresertib (NSC778305), talazoparib (NSC767125), sapanisertib (NSC764658), selumetinib (NSC741078), tovorafenib (DAY101, NSC766906), vemurafenib (NSC761431), ravoxertinib (NSC781343), sotorasib (NSC818433), MRTX1133 (NSC 836407), abemaciclib (NSC 768073), palbociclib (NSC758247), venetoclax (NSC 766270), SY5609 (NSC837396), enzalutamide (NSC755605), and darolutamide (NSC825331), were obtained from the National Cancer Institute (NCI) Developmental Therapeutics Program Chemical Repository. The FDA-approved anticancer drug set is available from the NCI Developmental Therapeutics Program. […] The stock solutions were prepared in dimethyl sulfoxide (DMSO, Sigma-Aldrich, St. Louis, MO, cat. D2650) at 800-fold the tested concentration and stored at -70 degrees C prior to their use. All drugs and investigational agents were tested over a range starting from a high concentration at or near the clinical Cmax and decreasing in half-log increments. If the clinical Cmax for an agent had not been determined, the highest concentration tested was 10 microM.
Cell Culture. All cells were maintained in an incubator at 37 degrees C and 5% CO2 with 95% humidity. The PDC lines were cultured according to standard operating procedures established by the NCI PDMR (https://pdmr.cancer.gov/sops/default.htm). All PDCs were thawed and cultured in Matrigel-coated flasks prepared with a working solution of 1X Ham's F-12 nutrient mix, without supplementation (Invitrogen, Waltham, MA, cat. 11765054), 100 U/mL penicillin-streptomycin (Invitrogen, cat. 15140122), and 2.5% Matrigel (Corning Inc., Corning, NY, cat. 354248) for the first three passages. The 354836-022-R-J1-PDC, 475296-252-R-J1-PDC, and 997726-040-R-J2-PDC lines were cultured in 6A media, which includes advanced DMEM/F-12 (Thermo Fisher Scientific, cat. 12634028), 10 mM HEPES (Thermo Fisher Scientific, cat. 15630080), 1X GlutaMAX supplement (Thermo Fisher Scientific, cat. 35050061), 0.1 mg/mL primocin (InvivoGen, San Diego, CA, cat. ant-pm-2), 10% defined fetal bovine serum, heat inactivated (HyClone Laboratories Inc., Logan, UT, cat. SH30070.03HI), 50% L-WRN conditioned media (ATCC, cat. CRL-3276), 1.25 mM N-Acetyl-L-cysteine (Sigma-Aldrich, cat. A9165), 10 mM nicotinamide (Sigma-Aldrich, cat. N0636), 1X B-27 supplement (Thermo Fisher Scientific, cat. 17504044), 1X N-2 supplement (Thermo Fisher Scientific, cat. 17502048), and 10 microM Y-27632 dihydrochloride (Tocris Bioscience, Bristol, United Kingdom, cat. 1254). The 624824-186-R-J2-PDC line was cultured in 6C/Colon 1B media, which includes all 6A media components plus 50 ng/mL human EGF recombinant protein (Thermo Fisher Scientific, cat. PHG0311). […]

[1] = second compound 0.00316 µM, first compound 0.0316 µM
[2] = second compound 0.00316 µM, first compound 0.1 µM
[3] = second compound 0.00316 µM, first compound 0.316 µM
[4] = second compound 0.00316 µM, first compound 1 µM
[5] = second compound 0.01 µM, first compound 0.0316 µM
[6] = second compound 0.01 µM, first compound 0.1 µM
[7] = second compound 0.01 µM, first compound 0.316 µM
[8] = second compound 0.01 µM, first compound 1 µM
[9] = second compound 0.0316 µM, first compound 0.0316 µM
[10] = second compound 0.0316 µM, first compound 0.1 µM
[11] = second compound 0.0316 µM, first compound 0.316 µM
[12] = second compound 0.0316 µM, first compound 1 µM
[13] = second compound 0.0316 µM, first compound 3.16 µM
[14] = second compound 0.0316 µM, first compound 10 µM
[15] = second compound 0.1 µM, first compound 0.0316 µM
[16] = second compound 0.1 µM, first compound 0.1 µM
[17] = second compound 0.1 µM, first compound 0.316 µM
[18] = second compound 0.1 µM, first compound 1 µM
[19] = second compound 0.1 µM, first compound 3.16 µM
[20] = second compound 0.1 µM, first compound 10 µM
[21] = second compound 0.316 µM, first compound 0.0316 µM
[22] = second compound 0.316 µM, first compound 0.1 µM
[23] = second compound 0.316 µM, first compound 0.316 µM
[24] = second compound 0.316 µM, first compound 1 µM
[25] = second compound 0.316 µM, first compound 3.16 µM
[26] = second compound 0.316 µM, first compound 10 µM
[27] = second compound 1 µM, first compound 0.0316 µM
[28] = second compound 1 µM, first compound 0.1 µM
[29] = second compound 1 µM, first compound 0.316 µM
[30] = second compound 1 µM, first compound 1 µM
[31] = second compound 1 µM, first compound 3.16 µM
[32] = second compound 1 µM, first compound 10 µM
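Further: spheroids exposed to agents for seven days before the viability read.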

Compound: CC1(C)CCC(Nc2ncc(C(F)(F)F)c(-c3c[nH]c4c(P(C)(C)=O)c(C#N)ccc34)n2)CN1 (stereo unspecified) + COc1c(OCCCN2CCOCC2)ccc2c3n(c(=NC(=O)c4cnc(N)nc4)nc12)CCN3
- IC50 (second compound 0.00316 µM): < 31.6 nM
- IC50 (second compound 0.01 µM): < 31.6 nM
- IC50 (second compound 0.0316 µM): < 31.6 nM
- IC50 (second compound 0.1 µM): < 31.6 nM
- IC50 (second compound 0.316 µM): < 31.6 nM
- IC50 (second compound 1 µM): < 31.6 nM
- viability, T/C [1]: 12.1%
- viability, T/C [2]: 11.7%
- viability, T/C [3]: 11.3%
- viability, T/C [4]: 12.8%
- viability, T/C (second compound 0.00316 µM, first compound 3.16 µM): 15.3%
- viability, T/C (second compound 0.00316 µM, first compound 10 µM): 3.31%
- viability, T/C [5]: 13.1%
- viability, T/C [6]: 12.1%
- viability, T/C [7]: 13%
- viability, T/C [8]: 12.4%
- viability, T/C (second compound 0.01 µM, first compound 3.16 µM): 15.3%
- viability, T/C (second compound 0.01 µM, first compound 10 µM): 1.45%
- viability, T/C [9]: 9.55%
- viability, T/C [10]: 11.7%
- viability, T/C [11]: 11.4%
- viability, T/C [12]: 14.8%
- viability, T/C [13]: 13.4%
- viability, T/C [14]: 1.98%
- viability, T/C [15]: 9.95%
- viability, T/C [16]: 8.41%
- viability, T/C [17]: 9.5%
- viability, T/C [18]: 9.61%
- viability, T/C [19]: 8.75%
- viability, T/C [20]: 0.91%
- viability, T/C [21]: 3.76%
- viability, T/C [22]: 3.49%
- viability, T/C [23]: 5.12%
- viability, T/C [24]: 4.26%
- viability, T/C [25]: 4.19%
- viability, T/C [26]: 0.4%
- viability, T/C [27]: 1.25%
- viability, T/C [28]: 1.35%
- viability, T/C [29]: 1.58%
- viability, T/C [30]: 1.61%
- viability, T/C [31]: 1.3%
- viability, T/C [32]: 0.43%

Compound: C=CC(=O)N1CCN(c2nc(=O)n(-c3c(C)ccnc3C(C)C)c3nc(-c4c(O)cccc4F)c(F)cc23)C(C)C1 (stereo unspecified) + Cc1nc(NC(=O)N2CCCC2C(N)=O)sc1-c1ccnc(C(C)(C)C(F)(F)F)c1
- IC50 (second compound 0.0316 µM): > 10000 nM
- IC50 (second compound 0.1 µM): > 10000 nM
- IC50 (second compound 0.316 µM): > 10000 nM
- IC50 (second compound 1 µM): > 10000 nM
- IC50 (second compound 3.16 µM): > 10000 nM
- IC50 (second compound 10 µM): < 31.6 nM
- viability, T/C [9]: 100%
- viability, T/C [10]: 90.5%
- viability, T/C [11]: 96.2%
- viability, T/C [12]: 87.7%
- viability, T/C [13]: 113%
- viability, T/C [14]: 92.5%
- viability, T/C [15]: 118%
- viability, T/C [16]: 100%
- viability, T/C [17]: 97.2%
- viability, T/C [18]: 96.7%
- viability, T/C [19]: 110%
- viability, T/C [20]: 105%
- viability, T/C [21]: 90.5%
- viability, T/C [22]: 99.2%
- viability, T/C [23]: 92.1%
- viability, T/C [24]: 90.6%
- viability, T/C [25]: 105%
- viability, T/C [26]: 97.6%
- viability, T/C [27]: 72.6%
- viability, T/C [28]: 77.8%
- viability, T/C [29]: 84.1%
- viability, T/C [30]: 105%
- viability, T/C [31]: 88%
- viability, T/C [32]: 89.4%
- viability, T/C (second compound 3.16 µM, first compound 0.0316 µM): 57.8%
- viability, T/C (second compound 3.16 µM, first compound 0.1 µM): 65.8%
- viability, T/C (second compound 3.16 µM, first compound 0.316 µM): 71.8%
- viability, T/C (second compound 3.16 µM, first compound 1 µM): 72.2%
- viability, T/C (second compound 3.16 µM, first compound 3.16 µM): 90.7%
- viability, T/C (second compound 3.16 µM, first compound 10 µM): 60.2%
- viability, T/C (second compound 10 µM, first compound 0.0316 µM): 36.8%
- viability, T/C (second compound 10 µM, first compound 0.1 µM): 36.5%
- viability, T/C (second compound 10 µM, first compound 0.316 µM): 33.7%
- viability, T/C (second compound 10 µM, first compound 1 µM): 46.4%
- viability, T/C (second compound 10 µM, first compound 3.16 µM): 43.8%
- viability, T/C (second compound 10 µM, first compound 10 µM): 29.5%

Compound: CCN1CCN(Cc2ccc(Nc3ncc(F)c(-c4cc(F)c5nc(C)n(C(C)C)c5c4)n3)nc2)CC1 + COc1c(OCCCN2CCOCC2)ccc2c3n(c(=NC(=O)c4cnc(N)nc4)nc12)CCN3
- IC50 (second compound 0.00316 µM): 656 nM
- IC50 (second compound 0.01 µM): 642 nM
- IC50 (second compound 0.0316 µM): 342 nM
- IC50 (second compound 0.1 µM): < 3.16 nM
- IC50 (second compound 0.316 µM): < 3.16 nM
- IC50 (second compound 1 µM): < 3.16 nM
- viability, T/C (second compound 0.00316 µM, first compound 0.00316 µM): 97.2%
- viability, T/C (second compound 0.00316 µM, first compound 0.01 µM): 86.5%
- viability, T/C [1]: 98.3%
- viability, T/C [2]: 99.3%
- viability, T/C [3]: 71.5%
- viability, T/C [4]: 37.6%
- viability, T/C (second compound 0.01 µM, first compound 0.00316 µM): 98%
- viability, T/C (second compound 0.01 µM, first compound 0.01 µM): 101%
- viability, T/C [5]: 96%
- viability, T/C [6]: 81.1%
- viability, T/C [7]: 83.5%
- viability, T/C [8]: 31.7%
- viability, T/C (second compound 0.0316 µM, first compound 0.00316 µM): 78.5%
- viability, T/C (second compound 0.0316 µM, first compound 0.01 µM): 74.4%
- viability, T/C [9]: 72.6%
- viability, T/C [10]: 65.2%
- viability, T/C [11]: 53.5%
- viability, T/C [12]: 20.9%
- viability, T/C (second compound 0.1 µM, first compound 0.00316 µM): 46.6%
- viability, T/C (second compound 0.1 µM, first compound 0.01 µM): 41.8%
- viability, T/C [15]: 46.5%
- viability, T/C [16]: 36.6%
- viability, T/C [17]: 30.4%
- viability, T/C [18]: 6.41%
- viability, T/C (second compound 0.316 µM, first compound 0.00316 µM): 11.8%
- viability, T/C (second compound 0.316 µM, first compound 0.01 µM): 10.4%
- viability, T/C [21]: 12.9%
- viability, T/C [22]: 8.98%
- viability, T/C [23]: 5.99%
- viability, T/C [24]: 2.69%
- viability, T/C (second compound 1 µM, first compound 0.00316 µM): 1.43%
- viability, T/C (second compound 1 µM, first compound 0.01 µM): 1.38%
- viability, T/C [27]: 1.41%
- viability, T/C [28]: 1.78%
- viability, T/C [29]: 1.38%
- viability, T/C [30]: 1.22%
